{"source": "BindingDB's records for doi:10.1186/2191-2858-2-21", "about": "(University of The West Indies, 2012)", "key": {"Cytochrome P450 1A1": {"target": "T1, Cytochrome P450 1A1 (Homo sapiens, UniProt P04798)", "T1 sequence (P04798 whole entry)": "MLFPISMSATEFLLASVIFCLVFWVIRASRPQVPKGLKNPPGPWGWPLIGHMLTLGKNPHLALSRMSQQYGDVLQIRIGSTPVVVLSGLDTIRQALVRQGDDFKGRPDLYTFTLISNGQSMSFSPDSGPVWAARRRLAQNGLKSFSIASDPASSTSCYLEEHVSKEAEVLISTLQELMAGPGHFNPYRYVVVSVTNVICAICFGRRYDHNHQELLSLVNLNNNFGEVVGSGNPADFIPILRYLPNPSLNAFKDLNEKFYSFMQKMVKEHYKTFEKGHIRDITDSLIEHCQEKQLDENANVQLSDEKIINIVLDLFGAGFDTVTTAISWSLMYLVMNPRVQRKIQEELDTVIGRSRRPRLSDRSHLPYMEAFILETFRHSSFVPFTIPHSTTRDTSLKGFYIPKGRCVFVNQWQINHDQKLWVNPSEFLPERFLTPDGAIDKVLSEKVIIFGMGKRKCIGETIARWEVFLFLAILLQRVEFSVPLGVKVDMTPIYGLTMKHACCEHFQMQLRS", "assay": "CYP Inhibition Assay", "protocol": "(§1) The test compounds were evaluated for their ability to inhibit the catlytic activity of human CYP1 enzymes by means of high throughput fluorometric detection assay conducted in 96-well microtitre plates."}, "Cytochrome P450 2C19": {"target": "Cytochrome P450 2C19 (Homo sapiens, UniProt P33261)", "sequence (P33261 whole entry)": "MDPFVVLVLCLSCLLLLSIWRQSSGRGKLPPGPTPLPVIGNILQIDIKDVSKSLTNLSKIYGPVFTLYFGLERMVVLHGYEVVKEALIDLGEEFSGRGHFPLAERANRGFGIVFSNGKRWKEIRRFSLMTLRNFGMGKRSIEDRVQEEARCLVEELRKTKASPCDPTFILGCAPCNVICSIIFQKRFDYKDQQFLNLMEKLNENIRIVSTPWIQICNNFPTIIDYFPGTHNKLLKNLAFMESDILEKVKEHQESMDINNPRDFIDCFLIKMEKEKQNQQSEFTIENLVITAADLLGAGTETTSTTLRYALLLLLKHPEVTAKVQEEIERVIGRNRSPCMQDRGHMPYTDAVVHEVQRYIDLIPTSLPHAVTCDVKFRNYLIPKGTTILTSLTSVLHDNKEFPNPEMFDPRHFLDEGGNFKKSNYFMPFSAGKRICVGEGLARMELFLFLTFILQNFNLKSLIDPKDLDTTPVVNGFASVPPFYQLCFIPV", "assay": "CYP Inhibition Assay", "protocol": "as §1"}}, "data": [{"molecule": "CC(C)(O)CCCC1(C)CC(=O)c2cc(O)c(Br)cc2O1", "note": "(configuration not stated) [PBQ1]", "values": [{"measurement": "IC50", "setting": "Cytochrome P450 1A1", "result": 0.39, "unit": "µM"}, {"measurement": "IC50", "setting": "Cytochrome P450 2C19", "result": 0.08, "unit": "µM"}]}]}
